Tested on: enucleated cow eyes
Experiment: Constant pressure perfusion of enucleated cow eyes, outflow facility
Settings: 5 h perfusion, 22° centigrade, 15 mm of mercury; for increase in outflow facility at the end of the experiment versus initial baseline: 0.125 mM drug in perfusion medium, ± SEM; for increase in outflow facility at the end of the experiment versus initial baseline, drug plus cysteine: 0.125 mM drug plus 0.625 mM cysteine
Method: Enunciated cow eyes were obtained from a local commercial abattoir, immediately chilled, and then perfused within twenty-four hours using a standard constant pressure perfusion technique. Pairs of eyes from a single animal were used for each experiment and subjected to the same manipulation except for the experimental drug in the experimental eye of perfusion. Briefly, a 5 mm central cornea trephine button was removed from each eye. Radial iridotomy was performed to prevent artificial deepening of the anterior chamber during perfusion. The anterior chamber was then gently irrigated with perfusion medium to remove pigment which might have been liberated by the iridotomy. A Grant stainless steel fitting was then placed into the cornea and connected by twenty-three gauge polyethylene tubing to the fluid reservoir of the perfusion apparatus.
The perfusion medium was Dulbecco's phosphate-buffered salt solution (PBS) (Grand Island Biological Company, Grand Island, N.Y.) with added 5.5 mM glucose. All solutions were filtered through a 0.2 μm Nuclepore filter.
The initial flow value was determined after the eyes had been perfused for one hour which allowed sufficient time to achieve adequate stability. The corneal fitting was removed, and the anterior chamber was gently emptied and refilled with fresh perfusion medium with added drug or sham solution. The corneal fitting was replaced and the eye was perfused for an additional five hours. The outflow facility (flow/pressure) was calculated at the end of the experiment and compared to the initial baseline after the initial hour (pre-drug, both eyes received control perfusion medium for the first hour). The change in the experimental eye was compared to the change in the fellow control eye by a paired T-test. Control eyes were treated similarly except that an osmotically equivalent amount of sodium chloride was added to the perfusion medium in place of the drug. All perfusions were performed at 22° centigrade and the perfusion pressure was 15 mm of mercury.

CC1(c2ccccc2)Cc2cc(OCC(=O)O)c(Cl)c(Cl)c2C1=O (stereo not shown) [indacrinone]
increase in outflow facility at the end of the experiment versus initial baseline: 113%±24%
increase in outflow facility at the end of the experiment versus initial baseline, drug plus cysteine: 91%±8

O=C(O)COc1ccc(C(=O)c2cccs2)c(Cl)c1Cl [ticrynafen]
increase in outflow facility at the end of the experiment versus initial baseline: 102%±23%
increase in outflow facility at the end of the experiment versus initial baseline, drug plus cysteine: 80%±9%
